Values quoted from earlier work in publication PMC5601361, “Targeting the Receptor for Advanced Glycation Endproducts (RAGE): A Medicinal Chemistry Perspective” (Journal of Medicinal Chemistry, 2017).
“Also recorded” adds a separate entry of the source. Where two headings read alike, the source gives them in different places. Each block holds one molecule with its values, some of them ahead of it.

Experiments:
[1] = system: tumor cell; parameters: method as in PMID 23421467; conditions: in vitro and in vivo
[2] = biological target: human RAGE; parameters: method as in PMID 22493510, PMID 21347371; conditions: SPR on human RAGE
[3] = biological target: rat and mouse sRAGE; parameters: method as in PMID 7592757; conditions: VC1C2
[4] = system: LLC and B16 melanoma cells; parameters: method as in PMID 22493510, PMID 21347371; conditions: single preadministration
[5] = biological target: human RAGE; parameters: method as in PMID 22742537, PMID 24727489; conditions: SPR
[6] = system: wild-type mice; parameters: method as in PMID 22742537, PMID 24727489; conditions: given prior to human Aβ administration, 3 ip, 7 iv 25 mg/kg
[7] = system: sRAGE
[8] = system: human RAGE-Aβ1–42; conditions: ELISA on human RAGE-Aβ1–42; for inhibitory activity compared with another compound: at 20 μM
[9] = parameters: method as in PMID 25533401
[10] = system: immune-deficient mice implanted with cancer cells; parameters: method as in PMID 22718861; conditions: ip delivery
[11] = system: pancreatic cancer cell lines; parameters: method as in PMID 22718861; conditions: several cancer cell lines
[12] = biological target: human sRAGE; parameters: method as in PMID 24824951; conditions: V domain; read-out: affinity for RAGE (Kd)
[13] = biological target: human sRAGE; parameters: method as in PMID 22406537; conditions: V domain, read-out: affinity for RAGE (Kd)
[14] = system: C6 glioma cells; parameters: method as in PMID 22742537; conditions: in vitro; 3 at 10 μM
[15] = system: APPswe/PS1 mice
[16] = system: APPsw/0 mice
[17] = system: sRAGE; remark: listed apart in the source
[18] = system: RAGE-transfected CHO cells
[19] = system: aortas of aged rats; parameters: method as in PMID 25160740
[20] = system: Wistar rats treated with AGEs; parameters: method as in PMID 26738988; conditions: ip 1 mg/kg/day for 4 weeks
[21] = system: Aβ; parameters: method as in PMID 26899576; conditions: 50 μM
[22] = system: RAGE-overexpressing SH-SY5Y cells
[23] = system: human brain tissue; parameters: method as in PMID 26771209
[24] = parameters: method as in PMID 26771209
[25] = parameters: method as in PMID 26771209; remark: listed apart in the source
[26] = system: diabetic mice; parameters: method as in PMID 18245563, PMID 26807573, PMID 14568011
[27] = system: rats; parameters: method as in PMID 25757085, PMID 20223279
[28] = biological target: human RAGE; parameters: method as in PMID 25084534; conditions: V domain; Ca2+-bound S100P homodimer; read-out: affinity for RAGE (Kd)
[29] = read-out: IC50, interaction of sRAGE to CML
[30] = read-out: IC50, interaction of sRAGE to S110B
[31] = read-out: IC50, interaction of sRAGE to amyloid β

Molecule: CCCCOc1cc(OCCCN(CC)CC)ccc1NC(=O)c1cc(-c2ccc(Oc3ccc(F)cc3)cc2)nn1C [Compound 7]
Kd [5]: 43400 nM
Aβ brain entry / accumulation in the brain [6]: reduce Aβ entry in the brain

Molecule: CCCCn1c([C@@H](Cc2ccc(OCCc3ccc(Cl)cc3)cc2)NC(=O)OC(C)(C)C)nc2cc(OCCCN(CC)CC)ccc21 [Compound 11]
IC50 [7, 29]: < 500 nM
IC50 [7, 30]: < 500 nM
IC50 [7, 31]: < 500 nM

Molecule: CN(C)C1CCN(CCOc2cccc(Nc3nc(-c4ccc(Cl)cc4)cc(-c4ccc(Cl)cc4)n3)c2)C1 (stereo not shown) [Compound 5]
inhibitory activity compared with another compound [8]: improved RAGE-Aβ1–42 inhibition
solubility compared to 3 [9]: improved

Molecule: CCCCOc1cc(OCCCN(CC)CC)ccc1NC(=O)C(CC1CCN(Cc2ccccc2)CC1)NC(=O)OCC1c2ccccc2-c2ccccc21 (stereo not shown) [Compound 10]
IC50 [7, 29]: < 500 nM
IC50 [7, 30]: < 500 nM
IC50 [7, 31]: < 500 nM

Molecule: ELKVLMEKEL [Compound 19, RAGE antagonistic peptide developed from the structure of S100P]
tumor growth, metastasis and inflammation [10]: reduction of tumor growth, metastasis, and inflammation
RAGE activation of NF-κB, inflammation, tumor growth and metastasis [11]: reduced; also recorded: inhibition of NF-κB, inflammation, tumor growth and metastasis

Molecule: CCN(CC)CCOc1ccc(OC)cc1NC(=O)c1nc(-c2ccc(F)cc2)cc(-c2ccc(F)cc2)n1 [Compound 6]
inhibitory activity compared with another compound [8]: superior RAGE inhibition than 3

Molecule: CCN(CC)CCOc1cccc(Nc2nc(-c3ccc(Cl)cc3)cc(-c3ccc(Cl)cc3)n2)c1 [Compound 3]
Kd [5]: 102000 nM
Aβ-induced NF-κB signaling [14]: down-regulation; also recorded: • downregulation of Aβ-induced NF-κB (in vitro)
IC50 [8]: 16500 nM
Aβ brain entry / accumulation in the brain ([6]; 25 mg/kg): inhibited Aβ brain entry; also recorded: • inhibition of Aβ accumulation in the brain (in vivo)
concentration of toxic soluble Aβ in the brain ([15]; oral 50 mg/kg per day for up to three months): significantly lowered

Molecule: O=C(c1ccc(Cl)cc1)N(Cc1ccccc1)C1CCCCC1 [Compound 12, N-Benzyl-N-cyclohexyl-4-chlorobenzamide]
Aβ1–40 and Aβ1–42 levels in brain (cortex, hippocampus) [16]: reducing their levels in the cortex and the hippocampus; also recorded: • reduced Aβ1–40 and Aβ1–42 levels in brain
RAGE actions at the BBB and in the brain [16]: • blocked RAGE actions at the BBB and in the brain
RAGE-mediated influx of circulating Aβ1–40 and Aβ1–42 into the brain [16]: inhibited; also recorded: • inhibition of Aβ influx in the brain (in vivo)
binding specificity in the CNS [16]: bound exclusively to RAGE
neuronal oxidative stress, microglia activation, neuroinflammation [16]: reduced Aβ-induced RAGE-dependent oxidative stress in neurons, suppressed microglia activation, and neuroinflammation
cognitive performance and cerebral blood flow ([16]; aged APPsw/0 mice): • normalized cognitive performance and cerebral blood flow in aged APPsw/0 mice
soluble APP β protein, p65, NF-κB and BACE1 mRNA levels in cortex and hippocampus ([16]; ip 1 mg/kg daily for 2 months): reduced
dose not toxic ([16]; ip, 15–17-month-old APPsw/0 mice): up to 500 mg/kg
binding to immobilized Aβ [17]: did not bind
Aβ1–40, Aβ1–42, S100B, HMGB1 binding to RAGE ([17]; in vitro): • inhibited Aβ1–40, Aβ1–42, S100B, HMGB1 binding to RAGE (in vitro)
BBB permeability: acceptable BBB permeability
toxicity in RAGE-transfected CHO cells ([18]; 10 μM): nontoxic
cytotoxicity / toxicology profile in vitro and in vivo ([18]; cell culture and rodents): good toxicology profile; also recorded: • low cytotoxicity in vitro and in vivo
Aβ1–40-induced NF-κB activation, BACE1 expression, cytokines ([18]; in vitro and in vivo): • reduced Aβ1–40-induced NF-κB activation, BACE1 expression, cytokines (in vitro and in vivo)
RAGE-mediated cellular oxidative stress, BACE1 mRNA, BACE1 activity, nuclear NF-κB levels ([18]; induced by Aβ1–40 and Aβ1–42): reduced
GSH/GSSG ratio [19]: increased
malondialdehyde and ROS production [19]: reduced
Aβ expression and APP production, NF-κB-mediated Aβ production, inflammatory response, ROS and lipid peroxidation [20]: reduction
antioxidant enzyme activity [20]: increased

Molecule: O=C1CCC[C@@H]2[C@H]3CCCN4CCC[C@@H](CN12)[C@@H]34 [Compound 14, matrine, reference compound]
Aβ aggregation or fibrillation [21]: prevents Aβ aggregation or fibrillation
brain Aβ, NF-κB, BACE1 levels ([15]; ip 100 mg/kg): reduces
proinflammatory cytokines (TNF-α and IL-1β) ([15]; ip 100 mg/kg): downregulates
transport across the BBB ([15]; ip 100 mg/kg, AD transgenic mice): is transported across the BBB
Aβ-induced cytotoxicity [22]: inhibits Aβ-induced cytotoxicity
RAGE-Aβ signaling pathway (NF-κB and BACE1 expression levels) ([22]; 50 μM): decrease of NF-κB and BACE1 expression levels
Aβ1–42, NF-κB, BACE1 and cytokines ([22]; in vitro and in vivo): • reduced Aβ1–42, NF-κB, BACE1 and cytokines (in vitro and in vivo)

Molecule: C[C@H](CCC(=O)O)[C@H]1CC[C@H]2[C@@H]3[C@@H](O)C[C@@H]4C[C@H](O)CC[C@]4(C)[C@H]3CC[C@]12C [ursodeoxycholic acid]
antiatherogenic activity [26]: antiatherogenic activity

Molecule: CCN(CC)CCOc1ccccc1Nc1nc(-c2ccc(Cl)cc2)cc(-c2ccc(Cl)cc2)n1 [Compound 4]
Aβ-induced NF-κB signaling [14]: • downregulation of Aβ-induced NF-κB (in vitro)
IC50 [8]: 4600 nM
Aβ brain entry / accumulation in the brain [6]: • inhibition of Aβ accumulation in the brain (in vivo)

Molecule: O=C(O)c1cccnc1C(=O)O [quinolinic acid]
neuronal death in the striatum [27]: dose-dependent neuronal death in the striatum

B1: S100P: S100 family protein binding the RAGE V domain (protein, UniProt P25815 1-95, looked up)
Protein S100-P: MTELETAMGMIIDVFSRYSGSEGSTQTLTKGELKVLMEKELPGFLQSGKDKDAVDKLLKDLDANGDAQVDFSEFIVFVAAITSACHKYFEKAGLK
Kd [28]: 6000 nM

The next lines start with results.

Kd [2]: 3.1 nM
Molecule: heparin [Compound 17]
tumor cell growth, migration, invasion and distant metastasis [1]: inhibited tumor cell growth, migration, invasion, and distant metastasis

affinity for RAGE (Kd) [3]: low nanomolar range
Kd ([3]; read-out: affinity for RAGE (Kd)): 6 to 10 nM
Molecule: HMGB1 (amphoterin): high mobility group box 1, cytokine-type RAGE ligand

Kd [2]: 0.2 nM
Molecule: chondroitin sulfate E [Compound 15]
lung colonization by tumor cells [4]: suppressed

Kd [12]: 40 nM
Molecule: CC1NC(NCCC[C@H](N)C(=O)O)=NC1=O (stereo partly shown) [MG-H1, methylglyoxal-derived hydroimidazolone-1]

Kd ([13]; listed as 125I-labeled Aβ1–40): 75 nM
Kd [13]: 70 to 80 nM
Molecule: β amyloid: β amyloid peptide, RAGE ligand

Kd [12]: 30 to 40 nM
Molecule: methylglyoxal-derived hydroimidazolones [MG-H]

Kd [2]: 0.6 nM
Molecule: heparan sulfate [Compound 16]
lung colonization by tumor cells [4]: suppressed

metabolism in rat liver microsomes [24]: rapidly metabolized
time of peak after iv injection [25]: ≤ 3 min
washout over the PET scan [25]: virtually complete washout
Molecule: O=C(c1ccc([18F])cc1)N(Cc1ccccc1)C1CCCCC1 [[^18F]13]
uptake in frontal cortex of AD compared with healthy control tissue [23]: higher uptake
nonspecific binding in vivo ([25]; iv injection): significant nonspecific binding to the white matter
